The source of these data is patent publication US10869924B2, “PD-L1 antagonist combination treatments” (MERCK PATENT GMBH, priority 2015, dated 2020).

The assay has as its system MC38 colon carcinoma. Nature of the assay: Subcutaneous MC38 colon carcinoma model, avelumab, anti-4-1BB and anti-M-CSF (Example 5). In kind it is in vivo, mouse. The conditions noted are these: anti-4-1BB 1 mg/kg, anti-M-CSF 15 mg/kg, Avelumab 10 mg/kg, ip, 3 doses 3 to 4 days apart, C57BL/6 mice. As to the method:
Six (6)- to 8-week old female C57BL/6 mice were purchased from the Jackson Laboratories. All animals were housed in a pathogen free vivarium facility at Rinat and experiments were conducted according to the protocols in accordance with the Institutional Animal Care and Use Committee (IACUC) guidelines.
The MC38 colon carcinoma cell line was kindly provided by Dr. Antoni Ribas at University of California, Los Angeles, Calif. Cells were cultured in Dulbecco's Modified Eagle's Medium (DMEM) supplemented with 10% fetal bovine serum (FBS), 2 mM L glutamine at 37° C. in 5% carbon dioxide (CO2), and IMPACT-tested for pathogens at Research Animal Diagnostic Laboratory (RADIL) (Columbia, Mo.). Pathogen-free cells growing in an exponential growth phase were harvested and used for tumor inoculation.
Therapeutic mouse anti-mouse 4-1BB mAb (mouse immunoglobulin G1 [mIgG1]), derived from the parental clone MAB9371 (R&D Systems), was prepared in-house. Avelumab was provided by Merck Serono. Rat anti-mouse M-CSF (clone 5A1), rat IgG1 (clone HRPN) and mIgG1 (clone: MOPC-21) isotype controls were purchased from BioXcell. Human IgG1 isotype was prepared in-house. Anti-4-1BB, avelumab and anti-M-CSF mAbs were diluted to concentrations of 0.1 mg/mL and 1 mg/mL, and 1.5 mg/mL, respectively, in phosphate buffered saline (PBS) (Life Technologies), and dosed at 0.2 mL per mouse intraperitoneally (ip) for 3 doses 3 to 4 days apart.
C57BL/6 mice were inoculated subcutaneously at the right flank with 0.5-1×10^6 MC38 cells in 0.1 mL of DMEM. When tumors reached an average of ˜60 mm^3 (range 41-93 mm^3), mice were randomized into groups of 10 animals per group, and treatment was started at the same day. Tumor size was measured in two dimensions using a caliper, and the volume was expressed in mm^3 using the formula: V=0.5 L×W^2 where L and W are the long and short diameters of the tumor, respectively. Body weight was recorded weekly.
Results were expressed as mean±SEM (Table 8). Statistical analyses were performed using GraphPad Prism 6.0. One-way or two-way ANOVA was applied to compare the statistical differences among multiple groups relative to isotype controls. P<0.05 was considered as significant difference.

“Avelumab: fully human mAb of the IgG1 isotype that specifically targets and blocks PD-L1”: the “Mean Tumor Size” value runs as follows: (Day 7 post-tumor inoculation (start of treatment)) 63 mm^3; (Day 10 post-tumor inoculation) 127 mm^3; (Day 14 post-tumor inoculation) 254 mm^3; (Day 16 post-tumor inoculation) 384 mm^3; (Day 18 post-tumor inoculation) 523 mm^3; (Day 21 post-tumor inoculation) 714 mm^3. Further, the “Mean Tumor Size” value (Day 23 post-tumor inoculation) worked out at 901 mm^3.
